Test results as given in ChEMBL document CHEMBL1150011 (Bioorg Med Chem Lett, 1996).
Each block holds one molecule with its values, some of them ahead of it.

Tests used:
Rattus norvegicus [1] = experiment: Diuretic activity in rat was determined by measuring urine volume at a dose of 10 mg/kg upon oral administration; format: functional
Rattus norvegicus [2] = experiment: Diuretic activity in rat was determined by measuring sodium excretion at a dose of 10 mg/kg upon oral administration; format: functional, Urine
Adenosine receptor A1 [3] = molecular target: T1, Adenosine receptor A1 (Cavia porcellus, UniProt P47745); experiment: Inhibition of adenosine induced negative inotropic activity against guinea-pig atria (Adenosine A1 receptor); format: functional
T1 sequence (P47745 whole entry): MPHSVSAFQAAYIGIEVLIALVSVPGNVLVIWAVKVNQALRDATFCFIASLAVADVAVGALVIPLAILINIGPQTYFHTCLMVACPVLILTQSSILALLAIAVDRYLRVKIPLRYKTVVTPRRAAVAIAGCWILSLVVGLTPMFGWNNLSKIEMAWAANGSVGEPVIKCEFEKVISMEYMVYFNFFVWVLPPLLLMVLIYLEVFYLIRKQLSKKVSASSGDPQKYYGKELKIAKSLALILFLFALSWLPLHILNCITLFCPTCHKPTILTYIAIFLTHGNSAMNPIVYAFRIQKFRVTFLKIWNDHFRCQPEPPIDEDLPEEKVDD

Adenosine receptor A1 [4] = molecular target: T2, Adenosine receptor A1 (Rattus norvegicus, UniProt P25099); experiment: Inhibition of [3H]CHA binding against Adenosine A1 receptors of rat cortical membranes; format: cell membranes, Membrane
T2 sequence (P25099 whole entry): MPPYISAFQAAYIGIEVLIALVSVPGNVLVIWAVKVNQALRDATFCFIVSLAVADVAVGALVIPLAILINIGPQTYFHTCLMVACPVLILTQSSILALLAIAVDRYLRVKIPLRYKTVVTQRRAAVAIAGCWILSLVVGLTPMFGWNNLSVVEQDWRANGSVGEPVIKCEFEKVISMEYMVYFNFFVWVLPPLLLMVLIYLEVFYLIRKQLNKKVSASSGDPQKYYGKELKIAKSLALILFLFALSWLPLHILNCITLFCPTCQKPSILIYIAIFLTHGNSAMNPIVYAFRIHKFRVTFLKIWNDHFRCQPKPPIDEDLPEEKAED

Adenosine receptor A1 [5] = molecular target: T1, Adenosine receptor A1; experiment: Inhibition of adenosine induced negative inotropic activity against guinea-pig atria (Adenosine A1 receptor) at 10 nM; format: functional

SMILES: CC[C@H]1CCCCN1C(=O)/C=C/c1c(-c2ccccc2)nn2ccccc12
Urine volume (% of control) (Rattus norvegicus [1]): 94%
Sodium excretion (% of control) (Rattus norvegicus [2]): 91%

SMILES: O=C(/C=C/c1c(-c2ccccc2)nn2ccccc12)N1CCCC[C@H]1CCO
Urine volume (% of control) (Rattus norvegicus [1]): 272%
Sodium excretion (% of control) (Rattus norvegicus [2]): 280%
IC50 (Adenosine receptor A1 [3]): 0.56 nM
IC50 (Adenosine receptor A1 [4]): 17.2 nM

SMILES: O=C(/C=C/c1c(-c2ccccc2)nn2ccccc12)N1CCCCC1
Urine volume (% of control) (Rattus norvegicus [1]): 195%
Sodium excretion (% of control) (Rattus norvegicus [2]): 179%

SMILES: CC[C@@H]1CCCCN1C(=O)/C=C/c1c(-c2ccccc2)nn2ccccc12
Urine volume (% of control) (Rattus norvegicus [1]): 201%
Sodium excretion (% of control) (Rattus norvegicus [2]): 220%

Further lines, with some results ahead:

IC50 (Adenosine receptor A1 [4]): 10100 nM
SMILES: O=C(/C=C/c1c(-c2ccccc2)nn2ccccc12)N1CCCC[C@@H]1CCO [FK453]
Urine volume (% of control) (Rattus norvegicus [1]): 96%
Sodium excretion (% of control) (Rattus norvegicus [2]): 96%

IC50 (Adenosine receptor A1 [5]): 91 nM
SMILES: CCC1CCCCN1C(=O)/C=C/c1c(-c2ccccc2)nc2sc(C)nn12 (stereo unspecified)
Urine volume (% of control) (Rattus norvegicus [1]): 242%
Sodium excretion (% of control) (Rattus norvegicus [2]): 278%
